Assay results published in patent publication US20230295115A1, “SUBSTITUTED ISOQUINOLINYLMETHYL AMIDES, ANALOGUES THEREOF, AND METHODS USING SAME” (priority 2020, published 2023).

Each compound was assayed on HBV rcDNA (assay: HepDE19 assay with bDNA quantitation of HBV rcDNA). Conditions: HepDE19 cells, 7 day incubation, rcDNA measured by Quantigene 2.0 bDNA assay, top concentration 25 μM; read-out: DE-19bDNA EC50.
Assay type: cell-based, hepatitis B virus (HBV)
Procedure, shortened: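 HepDE19 cells were switched to tetracycline-free medium and exposed to compound (0.5% DMSO final) for 7 days at 37° C. rcDNA was then quantified by bDNA with an HBV-specific probe set. In parallel, viability was read as ATP content (CellTiter-Glo) after 4 days on replicate plates.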
With `COc1ncc(C(C)N(C)C(=O)c2cc3cc(F)c(F)cc3[nH]2)c2cc(F)c(F)cc12` (single isomer, unassigned) [Compound 169, N-(1-(6,7-Difluoro-1-methoxyisoquinolin-4-yl)ethyl)-5,6-difluoro-N-methyl-1H-indole-2-carboxamide] the EC50 was 130 nM.
With `COc1ncc(C(C)N(C)C(=O)c2cc3cc(F)c(F)cc3[nH]2)c2cc(F)c(F)cc12` (single isomer, unassigned) [Compound 170, N-(1-(6,7-Difluoro-1-methoxyisoquinolin-4-yl)ethyl)-5,6-difluoro-N-methyl-1H-indole-2-carboxamide] the EC50 was 5040 nM.
`CC(c1cn(C)c(=O)c2cc(F)c(F)cc12)N(C)C(=O)c1cc2c(F)cccn2c1` (single isomer, unassigned) [Compound 171, N-(1-(6,7-difluoro-2-methyl-1-oxo-1,2-dihydroisoquinolin-4-yl)ethyl)-8-fluoro-N-methylindolizine-2-carboxamide] gave an EC50 of 16400 nM.
With `CC(c1cn(C)c(=O)c2cc(F)c(F)cc12)N(C)C(=O)c1cc2c(F)cccn2c1` (single isomer, unassigned) [Compound 172, N-(1-(6,7-difluoro-2-methyl-1-oxo-1,2-dihydroisoquinolin-4-yl)ethyl)-8-fluoro-N-methylindolizine-2-carboxamide] the EC50 was 90 nM.
`CC(c1cn(C)c(=O)c2cc(F)c(F)cc12)N(C)C(=O)c1cc2cc(F)c(F)cc2[nH]1` (single isomer, unassigned) [Compound 173, N-(1-(6,7-difluoro-2-methyl-1-oxo-1,2-dihydroisoquinolin-4-yl)ethyl)-5,6-difluoro-N-methyl-1H-indole-2-carboxamide] was tested, and the EC50 was 2120 nM.
`CC(c1cn(C)c(=O)c2cc(F)c(F)cc12)N(C)C(=O)c1cc2cc(F)c(F)cc2[nH]1` (single isomer, unassigned) [Compound 174, N-(1-(6,7-difluoro-2-methyl-1-oxo-1,2-dihydroisoquinolin-4-yl)ethyl)-5,6-difluoro-N-methyl-1H-indole-2-carboxamide] was tested, and the EC50 was 50 nM.
`COc1ncc(C(C)N(C)C(=O)c2ccc(C(F)(F)F)c(F)c2)c2cc(F)c(F)cc12` (single isomer, unassigned) [Compound 175, N-(1-(6,7-Difluoro-1-methoxyisoquinolin-4-yl)ethyl)-3-fluoro-N-methyl-4-(trifluoromethyl)benzamide] was tested, and the EC50 was 24300 nM.
Work on `COc1ncc(C(C)N(C)C(=O)c2ccc(C(F)(F)F)c(F)c2)c2cc(F)c(F)cc12` (single isomer, unassigned) [Compound 176, N-(1-(6,7-Difluoro-1-methoxyisoquinolin-4-yl)ethyl)-3-fluoro-N-methyl-4-(trifluoromethyl)benzamide] yielded an EC50 of 560 nM.
Compound `COc1ncc(C(C)N(C)C(=O)c2ccc(Br)c(F)c2)c2cc(F)c(F)cc12` (single isomer, unassigned) [Compound 177, 4-Bromo-N-(1-(6,7-difluoro-1-methoxyisoquinolin-4-yl)ethyl)-3-fluoro-N-methylbenzamide] has an EC50 of 20200 nM.
`COc1ncc(C(C)N(C)C(=O)c2ccc(Br)c(F)c2)c2cc(F)c(F)cc12` (single isomer, unassigned) [Compound 178, 4-Bromo-N-(1-(6,7-difluoro-1-methoxyisoquinolin-4-yl)ethyl)-3-fluoro-N-methylbenzamide] showed an EC50 of 200 nM.
`COc1ncc(C(C)N(C)C(=O)c2cc3c(F)cccn3c2)c2cc(F)c(F)cc12` (single isomer, unassigned) [Compound 179, N-(1-(6,7-difluoro-1-methoxyisoquinolin-4-yl)ethyl)-8-fluoro-N-methylindolizine-2-carboxamide] gave an EC50 of 9380 nM.
For `COc1ncc(C(C)N(C)C(=O)c2cc3c(F)cccn3c2)c2cc(F)c(F)cc12` (single isomer, unassigned) [Compound 180, N-(1-(6,7-difluoro-1-methoxyisoquinolin-4-yl)ethyl)-8-fluoro-N-methylindolizine-2-carboxamide], the EC50 was 240 nM.
With `COc1ncc(C(C)N(C)C(=O)[C@@H]2Cc3ccccc3N2)c2cc(F)c(F)cc12` (single isomer, unassigned) [Compound 181] the EC50 was 290 nM.
